Consider two molecules from publication PMC2694832, “Pharmacokinetics, tissue distribution and mass balance of radiolabeled dihydroartemisinin in male rats” (Malaria Journal, 2009).

The conditions of data set [1]: rats; cited from earlier work.
Data set [2] in a line: Pharmacokinetic study of [^14C] DHA and unchanged DHA, single i.v. dose. Type of data set: in vivo, rats. The protocol:
Traditional PK studies involve intermittent blood sampling and subsequent determination of drug concentrations in whole blood and plasma. The Culex automated blood sampler provides a way for blood withdrawal at preprogrammed intervals, which is more accurate and less labor intensive. Six rats in the PK group were implanted with a jugular vein catheter under an isofluorane anesthaesia. After the surgery, rats were allowed to recover for 96 hours with free access to food and water. The rats were dosed single i.v. at 3 mg/ml/kg with [^14C] DHA (20 μCi/kg), which was prepared as a 25% cremophore/0.9% saline solution, through the tail vein. […] PK evaluation of [^14C] DHA in plasma and whole blood, as well as unchanged DHA in plasma was conducted in individual rats.
Total radioactivity in the collected tissue samples were quantified in duplicate. Weighed tissue aliquots (~0.2 g) were digested overnight in 2 ml of Solvable® tissue solubilizer (Perkin-Elmer Life and Analytical Sciences, Boston, MA) at 50°C. Coloured samples were decolourized by adding a maximum of 0.2 ml of 30% H2O2 for 30–60 minutes. Scintillation cocktail (Hyonic Fluor; Perkin-Elmer Boston. Massachusetts, USA) was then added and radioactivity determined in a Perkin-Elmer Tri-Carb 3100 TR scintillation spectrophotometer (Packard Instrument Co., Downers Grove, Illinois, USA). Faeces and intestinal contents were thoroughly homogenized before taking aliquots. Plasma was also analysed using the HPLC-ECD system to measure the concentration of unchanged DHA, as described by Li et al.
The analysis of cold DHA in plasma was performed according to a previously described HPLC method with the following modifications: for simultaneous determination of artemisinin and DHA (artemisinin as an internal standard), the Agilent Eclipse XDB-C18 column 5 μm (4.6 × 150 mm) was used with an isocratic mobile phase consisting of 40% acetonitrile: 60% ESA Acid Metabolite A (70–4835) in the reductive mode (-400 mV) for the quantification of DHA. Validation and reproducibility were evaluated and a lower limit of quantitation (LLQ) of 2.31 ng/ml for DHA was determined. The inter- and intra-day coefficient of variation for accuracy and precision were all within ± 10%.
For pharmacokinetics, the concentration-time data of [^14C] DHA in plasma and whole blood collected during the 192 hour treatment period was fitted to a three-compartment open model using a nonlinear, extended least-square fitting procedure (WinNonlin 5.2, Pharsight Corporation, Cary, NC) using weighted (1/concentration) nonlinear regression. The area under the curve (AUC) was determined by the linear trapezoidal rule with extrapolation to infinity based on the concentration of the last time point divided by the terminal rate constant. Extrapolations to time zero were done using zero concentration for intravenous dosing and using C0 values determined from the three-compartment model equation at time zero by i.v. route. Mean clearance rate (CL) was determined by dividing the dose by the AUCinf for i.v. injection. Mean residence time (MRT) was determined by dividing the area under the first moment curve (AUMC) by the AUC. The volume of distribution at steady state (Vss) was calculated as the product of CL and MRT. The concentration-time data of unchanged DHA was fitted to a two-compartment open model. Statistical analysis was conducted with Microsoft Excel using a Student's t-test for dependent samples to compare means of paired and unpaired samples between two groups.

The subject of the next data set is human plasma proteins. The data set can be described thus: Protein binding of [^14C] DHA, equilibrium dialysis, human plasma. Type of data set: in vitro ADME. The settings on record: both sexes; undiluted human plasma, 0.15 to 57800 ng/ml, 37°C, five hours; read-out: plasma protein binding percentage. The protocol:
(§1) Human blood samples (five men and five women) were freshly obtained from subject volunteers at the Department of Clinical Trials, WRAIR. Rat samples were freshly collected from five male and five female rats. Equilibrium dialysis was performed using Teflon dialysis chambers and Diachema standard membranes as described by Li and Hümpel. The GD-4/90 Equilibrium Dialyzer (MM Developments, Ottawa) contained 20 micro-dialysis cells (2.0 ml/chamber). The molecular weight cutoff for dialysis membranes was 5000 D. Equilibrium was reached after four hours, when cells were rotated at 16 rpm and 37°C. Drugs were dissolved in plasma samples with various concentrations (0.15 – 57800 ng/ml) and all experiments were carried out for five hours.

The subject of a further data set is rat plasma proteins. The data set can be described thus: Protein binding of [^14C] DHA, equilibrium dialysis, rat plasma. Format: in vitro ADME. The protocol:
as §1
A general note: Equilibrium dialysis compares concentrations on both sides of a semipermeable membrane.

The nature of data set [3]: Mass balance and urinary/faecal elimination of [^14C] DHA. The settings on record: rats i.v. Format: in vivo, rats. The protocol: Metabolic cages were washed with a solution of 2% Count-off® (Perkin-Elmer Life and Analytical Sciences, Boston, Massachusetts, USA) and the volume was measured. Duplicate portions (0.1 ml urine; 1 ml cage rinse) of each sample were radio-assayed after the addition of scintillation cocktail. The weights of individual faecal samples were obtained and the samples were subsequently homogenized in four volumes of de-ionized water. Quadruplicate portions (1.0 ml) of each homogenate were decolourized with 30% hydrogen peroxide, and digested with Solvable® tissue solubilizer. After acidification with glacial acetic acid and addition of scintillation cocktail, samples were assayed for radioactivity. The samples were kept in at -20°C for two weeks prior to analysis.

The mark [4] stands for this setting: unchanged DHA in plasma, rats single i.v. 3 mg/kg.

Read-outs that look alike come from different tables or passages of the source. Where only a bound is given, the exact number is not on record here.

As to `C[C@H]1[C@H](OC(=O)CCC(=O)O)O[C@@H]2O[C@@]3(C)CC[C@H]4[C@H](C)CC[C@@H]1[C@@]24OO3` [Artesunate], the “plasma half-life of unchanged AS, first phase” value in data set [1] is 8.4 min.
Regarding `C[C@H]1[C@@H](O)O[C@@H]2O[C@@]3(C)CC[C@H]4[C@H](C)CC[C@@H]1[C@@]24OO3` [DHA, 10'dihydro-artemisinin], the AUC(0-inf) (as a rule, the area under the concentration-time curve extrapolated to infinity) in data set [2] (rat, iv, unchanged DHA in plasma, two-compartment, rats single i.v. 3 mg/kg) was 933 ± 125 ng·h/mL. For the same molecule, the mean residence time (MRT) (commonly a mean duration of stay, worked out from the concentration-time curve) in data set [2] (rat, iv, unchanged DHA in plasma, two-compartment, rats single i.v. 3 mg/kg, read-out: MRT) came out at 29.4 ± 7.2 min. Also, in data set [2] (rat, iv, unchanged DHA in plasma, two-compartment, rats single i.v. 3 mg/kg, read-out: Vss), the Vd was 1.66 ± 0.54 L/kg. Also, the AUC (as a rule, the area under the concentration-time curve, a measure of exposure) in data set [2] (rat, iv, unchanged DHA in plasma, rats i.v. 3 mg/kg) amounted to 933 ng·h/mL. Further, the Tmax (commonly the time from dosing to the highest level) in data set [2] (rat, iv, unchanged DHA in plasma, rats single i.v. 3 mg/kg, read-out: Tmax) stood at 1.2 min. In data set [2] (rat, plasma, iv, 3 mg/kg, unchanged DHA in plasma, two-compartment, rats single i.v. 3 mg/kg), the clearance (in general, the volume of plasma or blood freed of the substance per unit of time) was 55.8 mL/min/kg. Besides, the Cmax (commonly the peak of the concentration-time curve) is 2000 ± 507 ng/mL in data set [2] (rat, plasma, iv, 3 mg/kg, unchanged DHA in plasma, two-compartment, rats single i.v. 3 mg/kg, read-out: Cmax); 2000 ± 507 ng/mL in data set [2] (rat, plasma, iv, 3 mg/kg, unchanged DHA in plasma, rats single i.v. 3 mg/kg, read-out: Cmax at first peak); 1640 ± 468 ng/mL in data set [2] (rat, plasma, iv, 3 mg/kg, unchanged DHA in plasma, rats single i.v. 3 mg/kg, read-out: Cmax at second peak). In addition, the half-life in data set [2] (rat, plasma, iv, 3 mg/kg, unchanged DHA in plasma, two-compartment, rats single i.v. 3 mg/kg, read-out: t1/2 – alpha (converted)) was 15 ± 2.4 min; in data set [2] (rat, plasma, iv, 3 mg/kg, unchanged DHA in plasma, two-compartment, rats single i.v. 3 mg/kg, read-out: t1/2 – beta (terminal) (converted)), 61.8 ± 11.4 min. In data set [2] (rats, plasma, urine and faeces, single i.v. 3 mg/20 μCi/kg), the “duration of total radioactivity (long-lasting metabolites)” value is above 192 h. Moreover, the “time to complete elimination of unchanged DHA” value in data set [2] (rats, single i.v. 3 mg/kg) is at most 6 h. In data set [2] (unchanged DHA in plasma, two-compartment, rats single i.v. 3 mg/kg, 3 mg/kg), this molecule came in with a CL of 55.8337 ± 7.0562 mL/min/kg. Besides, the “time of second peak” value was 23 min in data set [2] (unchanged DHA in plasma, rats i.v. 3 mg/kg) and 22.8 min in data set [2] (setting [4]). The “time of first peak” value in data set [2] (setting [4]) is recorded as 0.02 h. Besides, the fraction unbound at 5 h in the data set on human plasma proteins is 0.18 to 0.24; in the data set on rat plasma proteins (both sexes, undiluted rat plasma, 0.15 to 57800 ng/ml, 37°C, five hours, read-out: plasma protein binding percentage) it was 0.18 to 0.24. Besides, in the data set with rat plasma proteins (rat plasma), the “dependence of binding capacity on drug concentration” value is listed as “not significantly different”. The “elimination via metabolism (hydrolysis and oxidation)” value in data set [3] amounted to 99%. For the same molecule, the “unchanged DHA eliminated by direct excretion from kidneys” value in data set [3] is reported as < 1 % of dose.
